Assay results taken from patent publication US20220332708A1 (Cytokinetics, Inc., priority 2021, published 2022).

System: Bovine cardiac myofibrils
Assay: Dose-dependent myofibril ATPase modulation (calcium-buffered, pyruvate kinase and lactate dehydrogenase-coupled ATPase assay at pCa25)
Format: biochemical
Conditions: concentration at which ATPase activity was 1.4-fold higher than the bottom of the dose curve, mean of a minimum of two independent tests
Method: In Vitro Model of Dose-Dependent Myofibril ATPase Modulation
Dose responses were measured using a calcium-buffered, pyruvate kinase and lactate dehydrogenase-coupled ATPase assay containing the following reagents (concentrations expressed are final assay concentrations): Potassium PIPES (12 mM), MgCl2 (2 mM), ATP (1 mM), DTT (1 mM), BSA (0.1 mg/ml), NADH (0.5 mM), PEP (1.5 mM), pyruvate kinase (4 U/ml), lactate dehydrogenase (8 U/ml), and antifoam (90 ppm). The pH was adjusted to 6.80 at 22° C. by addition of potassium hydroxide. Calcium levels were controlled by a buffering system containing 0.6 mM EGTA and varying concentrations of calcium, to achieve a free calcium concentration of 1×10^−4 M to 1×10^−8 M.
Bovine cardiac myofibrils were obtained by homogenizing the appropriate tissue in the presence of detergent. Such treatment removes membranes and majority of soluble cytoplasmic proteins but leaves intact cardiac sarcomeric acto-myosin apparatus. Concentrations of myofibrils were adjusted to achieve the necessary rate of ATP hydrolysis (typically 0.25-1.0 mg/ml).
Chemical entity dose responses were measured at the calcium concentration corresponding to 25% of maximal ATPase activity (pCa25), so a preliminary experiment was performed to test the response of the ATPase activity to free calcium concentrations in the range of 1×10^−4 M to 1×10^−8 M. Subsequently, the assay mixture was adjusted to the pCa25. Assays were performed by first preparing a dilution series of test chemical entity, each with an assay mixture containing potassium Pipes, MgCl2, BSA, DTT, pyruvate kinase, lactate dehydrogenase, myofibrils, antifoam, EGTA, CaCl2), and water. The assay was started by adding an equal volume of solution containing potassium Pipes, MgCl2, BSA, DTT, ATP, NADH, PEP, antifoam, and water. ATP hydrolysis was monitored by absorbance at 340 nm. The resulting dose response curve was fit by the 4 parameter equation y=Bottom+((Top−Bottom)/(1+((EC50/X)^Hill))). […] AC1.4 values reported in the table below are mean values based on a minimum of two independent tests.

SMILES | AC1.4
Cc1[nH]c(S(=O)(=O)NC2Cc3cc(Cl)c(Cl)cc3C2)cc1C(=O)N1CC(C)(C#N)C1 [Compound 79, 4-(3-cyano-3-methylazetidine-1-carbonyl)-N-(5,6-dichloro-2,3-dihydro-1H-inden-2-yl)-5-methyl-1H-pyrrole-2-sulfonamide] | 0.0599 µM
Cc1[nH]c(S(=O)(=O)N[C@@H]2Cc3cc(F)c(Cl)cc3C2)cc1C(=O)N1CC(C(F)(F)F)C1 [Compound 93, (R)-N-(5-chloro-6-fluoro-2,3-dihydro-1H-inden-2-yl)-5-methyl-4-(3-(trifluoromethyl)azetidine-1-carbonyl)-1H-pyrrole-2-sulfonamide] | 0.1626 µM
Cc1[nH]c(S(=O)(=O)N[C@]2(Cc3ccc(Cl)cc3)CCOC2)cc1C(=O)NCC(F)F (single isomer, unassigned) [Compound 65] | 3.2638 µM
Cc1[nH]c(S(=O)(=O)N[C@@H]2COc3cc(Cl)ccc3C2)cc1C(=O)N1CC(C)(C#N)C1 [Compound 72, (S)-N-(7-chlorochroman-3-yl)-4-(3-cyano-3-methylazetidine-1-carbonyl)-5-methyl-1H-pyrrole-2-sulfonamide] | 0.4237 µM
Cc1nc2cc(OCCN3CCOCC3)c(S(=O)(=O)Nc3ccc(N4C[C@H](C)C[C@@H](C)C4)nc3)cc2c(=O)[nH]1 [Compound 6, N-(6-((3R,5R)-3,5-dimethylpiperidin-1-yl)pyridin-3-yl)-2-methyl-7-(2-morpholinoethoxy)-4-oxo-3,4-dihydroquinazoline-6-sulfonamide] | 0.7385 µM
Cc1cc(S(=O)(=O)N[C@@H]2COc3cc(F)c(Cl)cc3[C@@H]2O)cc(N2CC(OC(F)F)C2)n1 [Compound 88, N-((3R,4S)-6-chloro-7-fluoro-4-hydroxychroman-3-yl)-2-(3-(difluoromethoxy)azetidin-1-yl)-6-methylpyridine-4-sulfonamide] | 2.209 µM
Cc1cnc(-c2cc(S(=O)(=O)N[C@H]3C[C@H](n4cc(C(F)(F)F)c(C)n4)C3)[nH]c2C)o1 [Compound 66, 5-Methyl-N-((trans)-3-(3-methyl-4-(trifluoromethyl)-1H-pyrazol-1-yl)cyclobutyl)-4-(5-methyloxazol-2-yl)-1H-pyrrole-2-sulfonamide] | 1.1207 µM
Cc1[nH]c(S(=O)(=O)N[C@@H]2COc3ccc(Cl)cc3[C@@H]2O)cc1C(=O)N1CC(C#N)C1 [Compound 74, N-((3R,4S)-6-chloro-4-hydroxychroman-3-yl)-4-(3-cyanoazetidine-1-carbonyl)-5-methyl-1H-pyrrole-2-sulfonamide] | 0.5684 µM
Cc1[nH]c(S(=O)(=O)N[C@@H]2CCc3c([nH]c4ccccc34)C2)cc1C(=O)NCCF [Compound 44, (R)-N-(2-fluoroethyl)-2-methyl-5-(N-(2,3,4,9-tetrahydro-1H-carbazol-2-yl)sulfamoyl)-1H-pyrrole-3-carboxamide] | 0.906 µM
Cc1[nH]c(S(=O)(=O)N[C@@H]2Cc3cc(F)c(Cl)cc3[C@H]2O)cc1C(=O)N1CC(C)(C#N)C1 [Compound 89] | 0.2521 µM
Cc1[nH]c(S(=O)(=O)N[C@@H]2CCc3c([nH]c4ccccc34)C2)cc1C(=O)NCC(F)(F)F [Compound 45, (R)-2-methyl-5-(N-(2,3,4,9-tetrahydro-1H-carbazol-2-yl)sulfamoyl)-N-(2,2,2-trifluoroethyl)-1H-pyrrole-3-carboxamide] | 0.4627 µM
Cc1[nH]c(S(=O)(=O)N[C@H]2Cc3cc(Cl)c(Cl)cc3[C@@]2(C)O)cc1C(=O)N1CC(C)(C#N)C1 (single isomer, unassigned) [Compound 92] | 0.6294 µM
CNc1cc2nc(C)[nH]c(=O)c2cc1S(=O)(=O)NC1CCN(c2cccc(F)c2)CC1 [Compound 11, N-(1-(3-fluorophenyl)piperidin-4-yl)-2-methyl-7-(methylamino)-4-oxo-3,4-dihydroquinazoline-6-sulfonamide] | 5.252 µM
Cc1[nH]c(S(=O)(=O)N[C@H]2C[C@H](c3ccc(Cl)cc3)C2)cc1C(=O)N1CC(C)(C#N)C1 [Compound 53, N-((trans)-3-(4-chlorophenyl)cyclobutyl)-4-(3-cyano-3-methylazetidine-1-carbonyl)-5-methyl-1H-pyrrole-2-sulfonamide] | 0.6222 µM
Cc1[nH]c(S(=O)(=O)N[C@]2(Cc3ccc(Cl)cc3)CCOC2)cc1C(=O)N1CC(F)(F)C1 [Compound 64, (R)-N-(3-(4-chlorobenzyl)tetrahydrofuran-3-yl)-4-(3,3-difluoroazetidine-1-carbonyl)-5-methyl-1H-pyrrole-2-sulfonamide] | 0.3886 µM
Cc1[nH]c(S(=O)(=O)N[C@H]2COc3cc(F)c(Cl)cc3C2)cc1C(=O)N1CC(C)(C#N)C1 [Compound 80, (R)-N-(6-chloro-7-fluorochroman-3-yl)-4-(3-cyano-3-methylazetidine-1-carbonyl)-5-methyl-1H-pyrrole-2-sulfonamide] | 13.1993 µM
CNc1cc2c(cc1S(=O)(=O)N[C@H]1CC[C@H](c3ccccc3)CC1)c(=O)[nH]c(=O)n2C [Compound 12] | 1.6528 µM
CNc1cc2c(cc1S(=O)(=O)N[C@H]1C[C@@H](Nc3ccccc3F)C1)c(=O)[nH]c(=O)n2C [Compound 18, N-((cis)-3-((2-fluorophenyl)amino)cyclobutyl)-1-methyl-7-(methylamino)-2,4-dioxo-1,2,3,4-tetrahydroquinazoline-6-sulfonamide] | 0.8832 µM
Cc1[nH]c(S(=O)(=O)N[C@H]2C[C@@H](c3cccc(C(F)(F)F)c3)C2)cc1C(=O)N1CC(C)(C#N)C1 [Compound 54, 4-(3-Cyano-3-methylazetidine-1-carbonyl)-5-methyl-N-((cis)-3-(3-(trifluoromethyl)phenyl)cyclobutyl)-1H-pyrrole-2-sulfonamide] | 2.9934 µM
Cc1cc(S(=O)(=O)N[C@@H]2COc3cc(F)c(Cl)cc3[C@@H]2O)cc(N2CC(C(F)F)C2)n1 [Compound 90] | 5.312 µM
CNc1cc2nc(C)[nH]c(=O)c2cc1S(=O)(=O)NC1CCc2c([nH]c3ccccc23)C1 (centres unmarked) [Compound 28, 2-Methyl-7-(methylamino)-4-oxo-N-(2,3,4,9-tetrahydro-1H-carbazol-2-yl)-3,4-dihydroquinazoline-6-sulfonamide] | 0.2504 µM
CNc1cc2c(cc1S(=O)(=O)NC1CCN(c3ccccc3)CC1)c(=O)[nH]c(=O)n2C [Compound 10, 1-Methyl-7-(methylamino)-2,4-dioxo-N-(1-phenylpiperidin-4-yl)-1,2,3,4-tetrahydroquinazoline-6-sulfonamide] | 2.8354 µM
CCOC(=O)c1cc(S(=O)(=O)Nc2ccc(N3C[C@H](C)C[C@@H](C)C3)nc2)[nH]c1C [Compound 30, Ethyl 5-(N-(6-((3R,5R)-3,5-dimethylpiperidin-1-yl)pyridin-3-yl)sulfamoyl)-2-methyl-1H-pyrrole-3-carboxylate] | 0.4832 µM
CNc1cc2c(cc1S(=O)(=O)N[C@H]1CC[C@@H](Nc3ccccc3)C1)c(=O)[nH]c(=O)n2C (relative stereo) [Compound 19, 1-Methyl-7-(methylamino)-2,4-dioxo-N-((cis)-3-(phenylamino)cyclopentyl)-1,2,3,4-tetrahydroquinazoline-6-sulfonamide] | 0.6379 µM
Cc1[nH]c(S(=O)(=O)N[C@@H]2Cc3cc(F)c(Cl)cc3C2)cc1C(=O)N1CC2(C1)CC(F)(F)C2 [Compound 97, (R)-N-(5-chloro-6-fluoro-2,3-dihydro-1H-inden-2-yl)-4-(6,6-difluoro-2-azaspiro[3.3]heptane-2-carbonyl)-5-methyl-1H-pyrrole-2-sulfonamide] | 0.2269 µM
Cc1[nH]c(S(=O)(=O)N[C@H]2C[C@H](n3cc(C(F)(F)F)cn3)C2)cc1C(=O)N1CC(C#N)C1 [Compound 55, 4-(3-cyanoazetidine-1-carbonyl)-5-methyl-N-((trans)-3-(4-(trifluoromethyl)-1H-pyrazol-1-yl)cyclobutyl)-1H-pyrrole-2-sulfonamide] | 5.7638 µM
CNc1cc2nc(C)[nH]c(=O)c2cc1S(=O)(=O)NC1CC(c2cccc(F)c2)C1 (centres unmarked) [Compound 24, N-(3-(3-fluorophenyl)cyclobutyl)-2-methyl-7-(methylamino)-4-oxo-3,4-dihydroquinazoline-6-sulfonamide] | 5.6964 µM
Cc1[nH]c(S(=O)(=O)NC23CC(c4ccccc4)(C2)C3)cc1C(=O)N1CC(C)(C#N)C1 [Compound 52, 4-(3-Cyano-3-methylazetidine-1-carbonyl)-5-methyl-N-(3-phenylbicyclo[1.1.1]pentan-l-yl)-1H-pyrrole-2-sulfonamide] | 1.4557 µM
CNc1cc2nc(C)[nH]c(=O)c2cc1S(=O)(=O)N[C@H]1CCc2c([nH]c3ccccc23)C1 [Compound 32, (S)-2-Methyl-7-(methylamino)-4-oxo-N-(2,3,4,9-tetrahydro-1H-carbazol-2-yl)-3,4-dihydroquinazoline-6-sulfonamide] | 5.8178 µM
